The numbers were not newly measured in patent US6955904B2, “Gene coding for quinone oxidoreductase of kluyveromyces marxianus and protein expressed therefrom” (Korea Institute of Science and Technology, priority 2001, dated 2005), which cites them from elsewhere.

Series [1] has as its target T1, Arabidopsis thaliana quinone oxidoreductases (Arabidopsis thaliana, UniProt Q9LK88).
T1 sequence (Q9LK88 1-196): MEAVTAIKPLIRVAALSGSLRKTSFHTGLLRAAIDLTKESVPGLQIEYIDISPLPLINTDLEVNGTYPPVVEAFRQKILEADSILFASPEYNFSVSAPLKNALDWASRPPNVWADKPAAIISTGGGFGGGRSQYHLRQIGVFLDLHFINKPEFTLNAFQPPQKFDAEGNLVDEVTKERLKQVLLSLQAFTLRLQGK
The note with it: Sparla et al., FEBS Letters 1999.

The target in series [2] is human quinone oxidoreductase (Homo sapiens, UniProt P15559). The note with it: Siegel et al., Mol. Pharmacol. 1997.
Sequence of human quinone oxidoreductase (P15559 whole entry): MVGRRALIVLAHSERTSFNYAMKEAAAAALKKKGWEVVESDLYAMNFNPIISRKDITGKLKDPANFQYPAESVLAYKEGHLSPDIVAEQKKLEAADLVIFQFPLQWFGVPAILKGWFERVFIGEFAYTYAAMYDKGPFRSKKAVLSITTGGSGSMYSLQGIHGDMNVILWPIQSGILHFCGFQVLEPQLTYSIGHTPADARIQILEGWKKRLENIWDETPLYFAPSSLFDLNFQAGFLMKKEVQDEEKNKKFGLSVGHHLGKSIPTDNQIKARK

Turning to `CC1=C(C)C(=O)C(C)=C(C)C1=O` [duroquinone], in series [1], the “rate constant for the reaction” value is reported as 3.2×10^7 M^−1m^−1.

Take `CC1=C(C)C(=O)C(CC[C@](C)(O)CCC[C@H](C)CCC[C@H](C)CCCC(C)C)=C(C)C1=O` [α-tocopherol quinone]: the “rate constant for the reaction” value in series [2] was 1.5×10^7 M^−1m^−1.
